From patent US10112978B2, “Peptide and use thereof” (OSAKA UNIVERSITY, priority 2014, dated 2018)
Entries after “also recorded” stand apart in the source; their conditions may differ.

Columns and labels:
C3H/HeN mice = experiment: Hair-growth effect in shaved mice; assay type: in vivo
Experimental: The dorsal skin of 8-week-old male C3H/HeN mice in the resting phase of the hair cycle was shaved using a hair clipper and a shaver with caution to avoid damage to the skin. The shaved area was 2×4 cm. To the shaved area, 100 μL of a 0.02% (w/v), 0.1% (w/v) or 0.5% (w/v) OSK-1 solution was applied once daily for 14 days starting from 3 days after the shaving. For the control group, physiological saline was applied, and for the positive control group, 3% (w/v) minoxidil was applied. The day of shaving was designated as Day 0. On Day 3, Day 7, Day 10, Day 14 and Day 17, the percentage of the area of hair regrowth relative to the entire shaved area in each mouse was scored according to the following criteria: 0% was defined as score 0, 20% or less was defined as score 1, 40% or less was defined as score 2, 60% or less was defined as score 3, 80% or less was defined as score 4, and 100% or less was defined as score 5. In addition, 10 strands of newly grown hair in the shaved area of each mouse were pulled out on Day 17, the length of each strand of newly grown hair was measured under a stereomicroscope, and the measured lengths were summed as the hair length (mm) of each animal.

C57/BL6 mice = experiment: Adjuvant effect in mice (anti-Ang II antibody titer after Ang II-KLH vaccine); assay type: in vivo; settings: Ang II-KLH 2 μg/animal + OSK-1 100 μg/animal intracutaneously 3 times at 2-week intervals
Experimental: For the Freund's adjuvant group, complete Freund's adjuvant was used at the first administration, and incomplete Freund's adjuvant was used at the second and third administration. Blood was drawn before the first administration and 2, 4, 6 and 8 weeks after the first administration, and the anti-Ang II antibody titer was measured.
The antibody titer was measured in the same manner as in Example 7.

**Q.** What does the source list for “ELKLIFLHRLKRLRKRLKRK (Ac-ELKLIFLHRLKRLRKRLKRK-NH2) [OSK-1]”?
**A.** hair length (C3H/HeN mice; 0.5% OSK-1 group, Day 17, compared with 3% minoxidil group): almost comparable to those in the 3% minoxidil group; hair regrowth score (C3H/HeN mice; 0.5% OSK-1 group, compared with 3% minoxidil group): almost comparable to those in the 3% minoxidil group; hair growth (C3H/HeN mice; 100 μL of 0.02%, 0.1% or 0.5% (w/v) solution on shaved dorsal skin once daily for 14 days): promote hair growth in a concentration dependent manner; anti-Ang II antibody titer (C57/BL6 mice): increase in the anti-Ang II antibody titer was observed; also recorded: smaller than that in the Freund's adjuvant (FA) group, but comparable to that in the alum group
